The assay concerns the target PDE4D3 (Homo sapiens, UniProt Q08499).
Sequence of PDE4D3 (Q08499 1-673 isoform Q08499-2): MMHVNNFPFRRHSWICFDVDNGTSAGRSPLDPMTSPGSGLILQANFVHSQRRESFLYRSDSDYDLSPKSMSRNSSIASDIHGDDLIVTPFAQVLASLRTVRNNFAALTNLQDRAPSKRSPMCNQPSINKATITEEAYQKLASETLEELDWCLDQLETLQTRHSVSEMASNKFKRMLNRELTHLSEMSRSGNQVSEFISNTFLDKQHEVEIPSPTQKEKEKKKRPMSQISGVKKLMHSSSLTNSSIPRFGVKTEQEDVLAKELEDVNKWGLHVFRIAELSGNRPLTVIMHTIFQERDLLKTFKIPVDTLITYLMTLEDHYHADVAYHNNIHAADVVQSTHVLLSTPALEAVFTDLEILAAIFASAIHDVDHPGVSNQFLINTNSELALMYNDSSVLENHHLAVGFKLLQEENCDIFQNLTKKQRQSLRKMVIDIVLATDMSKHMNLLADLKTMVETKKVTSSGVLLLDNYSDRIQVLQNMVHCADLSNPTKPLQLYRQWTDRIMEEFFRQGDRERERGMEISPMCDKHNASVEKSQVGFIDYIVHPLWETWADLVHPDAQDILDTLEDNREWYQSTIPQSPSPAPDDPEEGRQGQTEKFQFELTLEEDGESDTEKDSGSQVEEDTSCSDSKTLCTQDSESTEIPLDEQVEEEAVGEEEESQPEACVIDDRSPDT
The term EC50 denotes the concentration giving half of the maximal effect. A low value points to higher potency in that assay. On to `COc1ncc(Cc2cnc(N)nc2)nc1-c1cccc(OC(F)F)c1` [Example 106, 5-({6-[3-(Difluoromethoxy)phenyl]-5-methoxypyrazin-2-yl}methyl)pyrimidin-2-amine], for which the EC50 is less than 100 nM.

Compound `COc1ncc(Cc2cnc(C#N)nc2)nc1-c1cccc(OC(F)F)c1` [Example 107, 5-({6-[3-(Difluoromethoxy)phenyl]-5-methoxypyrazin-2-yl}methyl)pyrimidine-2-carbonitrile] had a 50% effective concentration (EC50) of less than 100 nM.

As for `CCOc1ncc(Cc2cnc(C#N)nc2)nc1-c1cccc(Cl)c1` [Example 108, 5-{[6-(3-Chlorophenyl)-5-ethoxypyrazin-2-yl]methyl}pyrimidine-2-carbonitrile], the EC50 lay within 100 to 1000 nM.

In turn, `FC(F)Oc1ncc(Cc2ccccn2)cc1-c1cccc(Cl)c1` [Example 109, 3-(3-Chlorophenyl)-2-(difluoromethoxy)-5-(pyridin-2-ylmethyl)pyridine] registered an EC50 of 100 to 1000 nM.

Turning to `FC(F)Oc1ncc(Cc2cnccn2)cc1-c1cccc(Cl)c1` [Example 110, 2-{[5-(3-Chlorophenyl)-6-(difluoromethoxy)pyridin-3-yl]methyl}pyrazine], the EC50 is less than 100 nM.

Compound `Nc1ccc(Cc2cnc(OC(F)F)c(-c3cccc(Cl)c3)c2)nn1` [Example 111, 6-{[5-(3-Chlorophenyl)-6-(difluoromethoxy)pyridin-3-yl]methyl}pyridazin-3-amine] gave an EC50 of 100 to 1000 nM.

`COc1nc(C)c(Cn2cncn2)cc1-c1cccc(Cl)c1` [Example 112, 3-(3-Chlorophenyl)-2-methoxy-6-methyl-5-(1H-1,2,4-triazol-1-ylmethyl)pyridine] returned an EC50 of 100 to 1000 nM.

Consider `COc1ncc(Cc2ccc(C(N)=O)cc2)nc1-c1cccc(Cl)c1` [Example 113, 4-{[6-(3-Chlorophenyl)-5-methoxypyrazin-2-yl]methyl}benzamide], for which the EC50 was 100 to 1000 nM.

With `NC(=O)c1ccc(Cc2cnc(OC(F)F)c(-c3cccc(Cl)c3)c2)cn1` [Example 114, 5-{[5-(3-Chlorophenyl)-6-(difluoromethoxy)pyridin-3-yl]methyl}pyridine-2-carboxamide], the concentration giving a half-maximal response (EC50) was 100 to 1000 nM.

In turn, `COc1cccc(-c2cc(Cc3cnc(C(N)=O)nc3)cnc2OC(F)F)c1` [Example 115, 5-{[6-(Difluoromethoxy)-5-(3-methoxyphenyl)pyridin-3-yl]methyl}pyrimidine-2-carboxamide] displayed an EC50 of 100 to 1000 nM.

With `COc1ncc(Cc2ccc(C(N)=O)nc2)cc1-c1cccc(Cl)c1` [Example 116, 5-{[5-(3-Chlorophenyl)-6-methoxypyridin-3-yl]methyl}pyridine-2-carboxamide], the EC50 fell in the range of 100 to 1000 nM.

Take `NC(=O)c1ncc(Cc2cnc(OC(F)F)c(-c3cccc(Cl)c3)c2)cn1` [Example 117, 5-{[5-(3-Chlorophenyl)-6-(difluoromethoxy)pyridin-3-yl]methyl}pyrimidine-2-carboxamide]: the EC50 fell in the range of 100 to 1000 nM.

Take `COc1ncc(Cc2cnc(C(N)=O)nc2)cc1-c1cccc(F)c1` [Example 118, 5-{[5-(3-Fluorophenyl)-6-methoxypyridin-3-yl]methyl}pyrimidine-2-carboxamide]: the half-maximal effective concentration (EC50) was 100 to 1000 nM.

On to `CCOc1ncc(Cc2cnc(C(N)=O)nc2)cc1-c1cccc(OC(F)F)c1` [Example 119, 5-({5-[3-(Difluoromethoxy)phenyl]-6-ethoxypyridin-3-yl}methyl)pyrimidine-2-carboxamide], for which the EC50 was less than 100 nM.

In turn, `COc1ncc(Cc2cnc(C(N)=O)nc2)cc1-c1ccnc(OC(F)F)c1` [Example 120, 5-({5-[2-(Difluoromethoxy)pyridin-4-yl]-6-methoxypyridin-3-yl}methyl)pyrimidine-2-carboxamide] showed an EC50 of 100 to 1000 nM.

The compound `COc1ncc(Cc2cnc(C(N)=O)nc2)cc1-c1cccc(OC(F)F)c1` [Example 121, 5-({5-[3-(Difluoromethoxy)phenyl]-6-methoxypyridin-3-yl}methyl)pyrimidine-2-carboxamide] came in with an EC50 of 100 to 1000 nM.

Consider `CCOc1ncc(Cc2cnc(C(N)=O)nc2)cc1-c1ccnc(OC(F)F)c1` [Example 122, 5-({5-[2-(Difluoromethoxy)pyridin-4-yl]-6-ethoxypyridin-3-yl}methyl)pyrimidine-2-carboxamide], for which the half-maximal effective concentration (EC50) is less than 100 nM.

The compound `COc1ncc(Cc2cnc(C(N)=O)nc2)nc1-c1cccc(Cl)c1` [Example 123, 5-{[6-(3-Chlorophenyl)-5-methoxypyrazin-2-yl]methyl}pyrimidine-2-carboxamide] returned an EC50 of less than 100 nM.

With `CCOc1ncc(Cc2ccc(C(N)=O)nc2)nc1-c1cccc(OC(F)F)c1` [Example 124, 5-({6-[3-(Difluoromethoxy)phenyl]-5-ethoxypyrazin-2-yl}methyl)pyridine-2-carboxamide], the concentration for a half-maximal effect (EC50) was less than 100 nM.

For the compound `COc1ncc(Cc2cnc(C(N)=O)nc2)nc1-c1cccc(OC(F)F)c1` [Example 125, 5-({6-[3-(Difluoromethoxy)phenyl]-5-methoxypyrazin-2-yl}methyl)pyrimidine-2-carboxamide], the EC50 is less than 100 nM.

`CCOc1ncc(Cc2cnc(C(N)=O)nc2)nc1-c1cccc(Cl)c1` [Example 126, 5-{[6-(3-Chlorophenyl)-5-ethoxypyrazin-2-yl]methyl}pyrimidine-2-carboxamide] displayed a concentration giving a half-maximal response (EC50) of less than 100 nM.

Compound `COC(=O)c1ncn(Cc2cnc(OC)c(-c3cccc(Cl)c3)n2)n1` [Example 127, Methyl 1-{[6-(3-chlorophenyl)-5-methoxypyrazin-2-yl]methyl}-1H-1,2,4-triazole-3-carboxylate] registered an EC50 of 1000 to 10000 nM.

Compound `FC(F)Oc1ncc(Cn2cnc(C3CC3)n2)cc1-c1cccc(Cl)c1` [Example 128, 3-(3-Chlorophenyl)-5-[(3-cyclopropyl-1H-1,2,4-triazol-1-yl)methyl]-2-(difluoromethoxy)pyridine] showed an EC50 of 100 to 1000 nM.

For the compound `COc1ncc(Cn2cncn2)cc1-c1cccc(F)c1` [Example 129, 3-(3-Fluorophenyl)-2-methoxy-5-(1H-1,2,4-triazol-1-ylmethyl)pyridine], the 50% effective concentration (EC50) was 100 to 1000 nM.

With `COc1ncc(Cn2cncn2)nc1-c1cccc(Cl)c1` [Example 130, 3-(3-Chlorophenyl)-2-methoxy-5-(1H-1,2,4-triazol-1-ylmethyl)pyrazine], the EC50 fell in the range of 100 to 1000 nM.

With `FC(F)Oc1ncc(Cn2cncn2)cc1-c1cccc(Cl)c1` [Example 131, 3-(3-Chlorophenyl)-2-(difluoromethoxy)-5-(1H-1,2,4-triazol-1-ylmethyl)pyridine], the concentration for a half-maximal effect (EC50) is less than 100 nM.

`COc1ncc(Cn2cnc(C)n2)nc1-c1cccc(Cl)c1` [Example 132, 3-(3-Chlorophenyl)-2-methoxy-5-[(3-methyl-1H-1,2,4-triazol-1-yl)methyl]pyrazine]: the EC50 fell in the range of 100 to 1000 nM.

The compound `COc1ncc(Cn2cnc(C3CC3)n2)nc1-c1cccc(Cl)c1` [Example 133, 3-(3-Chlorophenyl)-5-[(3-cyclopropyl-1H-1,2,4-triazol-1-yl)methyl]-2-methoxypyrazine] yielded a half-maximal effective concentration (EC50) of 1000 to 10000 nM.

The compound `COc1ncc(Cn2cncn2)cc1-c1cccc(Cl)c1` [Example 134, 3-(3-Chlorophenyl)-2-methoxy-5-(1H-1,2,4-triazol-1-ylmethyl)pyridine] showed an EC50 of less than 100 nM.

The compound `CC(C)Oc1ncc(Cn2cncn2)cc1-c1cccc(Cl)c1` [Example 135, 3-(3-Chlorophenyl)-2-(propan-2-yloxy)-5-(1H-1,2,4-triazol-1-ylmethyl)pyridine] had an EC50 of 1000 to 10000 nM.

`COc1ncc(Cn2cncn2)cc1-c1cccc(C#N)c1` [Example 136, 3-[2-Methoxy-5-(1H-1,2,4-triazol-1-ylmethyl)pyridin-3-yl]benzonitrile] had a concentration giving a half-maximal response (EC50) of 100 to 1000 nM.

As to `COc1ncc(Cn2cncn2)cc1-c1cccc(OC(F)(F)F)c1` [Example 137, 2-Methoxy-5-(1H-1,2,4-triazol-1-ylmethyl)-3-[3-(trifluoromethoxy)phenyl]pyridine], the 50% effective concentration (EC50) fell in the range of 100 to 1000 nM.

Take `COc1ncc(Cn2cnnc2C)cc1-c1cccc(Cl)c1` [Example 138, 3-(3-Chlorophenyl)-2-methoxy-5-[(3-methyl-4H-1,2,4-triazol-4-yl)methyl]pyridine]: the concentration giving a half-maximal response (EC50) lay within 1000 to 10000 nM.

Consider `COc1ncc(Cn2cncn2)cc1-c1cc(F)cc(F)c1` [Example 139, 3-(3,5-Difluorophenyl)-2-methoxy-5-(1H-1,2,4-triazol-1-ylmethyl)pyridine], for which the 50% effective concentration (EC50) was 100 to 1000 nM.

For the compound `COC(=O)c1ncnn1Cc1cnc(OC)c(-c2cccc(Cl)c2)c1` [Example 140, Methyl 1-{[5-(3-chlorophenyl)-6-methoxypyridin-3-yl]methyl}-1H-1,2,4-triazole-5-carboxylate], the EC50 was more than 10000 nM.

The compound `COC(=O)c1ncn(Cc2cnc(OC)c(-c3cccc(Cl)c3)c2)n1` [Example 141, Methyl 1-{[5-(3-chlorophenyl)-6-methoxypyridin-3-yl]methyl}-1H-1,2,4-triazole-3-carboxylate] gave an EC50 of 100 to 1000 nM.

Regarding `COc1ncc(Cn2cncn2)cc1-c1cc(Cl)cs1` [Example 142, 3-(4-Chlorothiophen-2-yl)-2-methoxy-5-(1H-1,2,4-triazol-1-ylmethyl)pyridine], the half-maximal effective concentration (EC50) is 100 to 1000 nM.

Compound `COc1ncc(Cn2cnc(C)n2)cc1-c1cccc(Cl)c1` [Example 143, 3-(3-Chlorophenyl)-2-methoxy-5-[(3-methyl-1H-1,2,4-triazol-1-yl)methyl]pyridine] yielded an EC50 of less than 100 nM.

For the compound `COc1ncc(Cn2cncn2)cc1-c1cccc(C(F)F)c1` [Example 144, 3-[3-(Difluoromethyl)phenyl]-2-methoxy-5-(1H-1,2,4-triazol-1-ylmethyl)pyridine], the EC50 was less than 100 nM.

The compound `COc1ncc(Cn2cccn2)cc1-c1cccc(Cl)c1` [Example 145, 3-(3-Chlorophenyl)-2-methoxy-5-(1H-pyrazol-1-ylmethyl)pyridine] came in with an EC50 of less than 100 nM.

`COc1ncc(Cn2cnc(C(F)(F)F)n2)cc1-c1cccc(Cl)c1` [Example 146, 3-(3-Chlorophenyl)-2-methoxy-5-{[3-(trifluoromethyl)-1H-1,2,4-triazol-1-yl]methyl}pyridine]: the half-maximal effective concentration (EC50) lay within 100 to 1000 nM.

Compound `COc1ncc(Cn2cnc(C3CC3)n2)cc1-c1cccc(Cl)c1` [Example 147, 3-(3-Chlorophenyl)-5-[(3-Cyclopropyl-1H-1,2,4-triazol-1-yl)methyl]-2-methoxypyridine] returned a half-maximal effective concentration (EC50) of 100 to 1000 nM.

Values taken from US9120770B2, “Substituted pyridine and pyrazine compounds as PDE4 inhibitors” (DART NEUROSCIENCE (CAYMAN) LTD., priority 2013, dated 2015).
